As usually defined, the pIC50 is −log10 of the IC50, conventionally taken in molar units. A lower pIC50 goes with a high IC50.

The record followed here is ChEMBL document CHEMBL1125760, “4-(Tetrazolylalkyl)piperidine-2-carboxylic acids. Potent and selective N-methyl-D-aspartic acid receptor antagonists with a short duration of action” (J Med Chem, 1991).

Test [1] concerns the target Glutamate NMDA receptor. Nature of the test: Compound was evaluated in vitro in a cortical-wedge preparation for the antagonism of N-methyl-D-aspartate-induced responses. It is filed as functional.
The subject of a further test is Rattus norvegicus. Nature of the test: Tested for antagonism of NMDA induced convulsions in neonatal rats (ip) and minimum effective dose (MED) was reported. Particulars: read-out: MED. The test is classed as functional.
The next test relates to Mus musculus. Kind of test: Tested for antagonism of NMDA induced lethality in neonatal mice (ip) and minimum effective dose (MED) was reported. It is filed as functional. Particulars: read-out: MED.
The target in test [2] is Glutamate NMDA receptor. Nature of the test: In vitro binding affinity against N-methyl-D-aspartate glutamate receptor using [3H]CGS-19,755 ligand. It is filed as protein-complex assay.

The structures appear in SMILES notation. pIC50: −log10 of the molar value.

On Glutamate NMDA receptor [1], `O=C(O)[C@H]1C[C@@H](Cc2nnn[nH]2)CCN1` showed a pIC50 of 5.38. In addition, the minimal effective dose in the test on Rattus norvegicus stood at 20 mg/kg; in the test on Mus musculus, 5 mg/kg.

Turning to `O=C(O)[C@@H]1C[C@H](CCc2nn[nH]n2)CCN1`, the figures for the pIC50 on Glutamate NMDA receptor [1] and at Glutamate NMDA receptor [2] were 5.09 and 5.64, respectively. Further, the minimal effective dose in the test with Rattus norvegicus turned out to be 100 mg/kg; with Mus musculus, 20 mg/kg.

For the compound `O=C(O)[C@@H]1C[C@H](CCCCc2nn[nH]n2)CCN1`, the pIC50 at Glutamate NMDA receptor [2] is below 5.00. The minimal effective dose with Mus musculus is above 160 mg/kg.

At Glutamate NMDA receptor [1], `O=C(O)[C@@H]1C[C@H](CCCc2nn[nH]n2)CCN1` gave a negative-log IC50 (pIC50) of 4.91. Besides, the minimal effective dose in the test on Rattus norvegicus came out at 100 mg/kg; in the test with Mus musculus, 10 mg/kg.

As to `O=C(O)[C@H]1C[C@H](Cc2nn[nH]n2)CCN1`, the pIC50 is 4.45 at Glutamate NMDA receptor [1] and 6.11 on Glutamate NMDA receptor [2]. Moreover, the minimal effective dose in the test on Mus musculus is 80 mg/kg.

`CN1CC[C@H](Cc2nn[nH]n2)C[C@@H]1C(=O)O` gave a negative-log IC50 (pIC50) at Glutamate NMDA receptor [2] below 5.00. The minimal effective dose in the test on Mus musculus was above 160 mg/kg.

Compound `O=C(O)[C@@H]1C[C@H](CP(=O)(O)O)CCN1` [SELFOTEL] showed a pIC50 at Glutamate NMDA receptor [1] of 5.77. In addition, the minimal effective dose amounted to 5 mg/kg in the test with Rattus norvegicus and 1.25 mg/kg in the test with Mus musculus.
